Numbers after ± are expanded uncertainties.
Experiment: xn = mol fraction of the nth substance listed
Details: 101 kPa, Liquid, Vibrating tube method, x2 = 0.5

- mass density (303.15 K): 1189.9 ± 0.6 kg/m3
- mass density (308.15 K): 1187.3 ± 0.6 kg/m3
- mass density (313.15 K): 1184.7 ± 0.6 kg/m3
- mass density (318.15 K): 1182.1 ± 0.6 kg/m3
- mass density (323.15 K): 1179.7 ± 0.6 kg/m3
SMILES: O=C(O)CC(=O)O [propanedioic acid] + C[N+](C)(C)CCO.[Cl-]

Reference: the NIST ThermoML archive (doi:10.1016/j.jct.2013.08.029)
